This note sets out measurements from patent US10391095B2, “DNA-PK inhibitors” (Vertex Pharmaceuticals Incorporated, priority 2012, dated 2019).

Some results are limits rather than exact numbers.

For this assay, the target named is DNA-PK (Homo sapiens, UniProt P78527). In words: DNA-PK inhibition assay (radiometric, 33P-ATP). The conditions noted are these: 100 μM ATP, competitive tight-binding fit. The class given is biochemical. On the procedure:
Compounds were screened for their ability to inhibit DNA-PK kinase using a standard radiometric assay. Briefly, in this kinase assay the transfer of the terminal ^33P-phosphate in ^33P-ATP to a peptide substrate is interrogated. The assay was carried out in 384-well plates to a final volume of 50 μL per well containing approximately 6 nM DNA-PK, 50 mM HEPES (pH 7.5), 10 mM MgCl2, 25 mM NaCl, 0.01% BSA, 1 mM DTT, 10 μg/mL sheared double-stranded DNA (obtained from Sigma), 0.8 mg/mL DNA-PK peptide ([…] obtained from American Peptide), and 100 μM ATP. Accordingly, compounds of the invention were dissolved in DMSO to make 10 mM initial stock solutions. Serial dilutions in DMSO were then made to obtain the final solutions for the assay. A 0.75 μL aliquot of DMSO or inhibitor in DMSO was added to each well, followed by the addition of ATP substrate solution containing ^33P-ATP (obtained from Perkin Elmer). The reaction was started by the addition of DNA-PK, peptide and ds-DNA. After 45 min, the reaction was quenched with 25 μL of 5% phosphoric acid. The reaction mixture was transferred to MultiScreen HTS 384-well PH plates (obtained from Millipore), allowed to bind for one hour, and washed three times with 1% phosphoric acid. Following the addition of 50 μL of Ultima Gold™ high efficiency scintillant (obtained from Perkin Elmer), the samples were counted in a Packard TopCount NXT Microplate Scintillation and Luminescence Counter (Packard BioScience). The Ki values were calculated using Microsoft Excel Solver macros to fit the data to the kinetic model for competitive tight-binding inhibition.

`COc1ccccc1[C@H](C)CNc1cc(-c2ccnc(Nc3nn[nH]n3)c2)ncn1` [Compound 211] gave an inhibitory constant (Ki) below 30 nM.
The value for `CC(CNc1cc(-c2cnc3[nH]ncc3c2)ncn1)c1ccccc1OC1COC1` (centres unmarked) [Compound 214] was below 30 nM.
`COCCn1ncc2cc(-c3cc(NCC(C)c4ccccc4OC4COC4)ncn3)cnc21` (centres unmarked) [Compound 215] returned a Ki below 30 nM.
In turn, `CC(CNc1cc(-c2cnc3c(cnn3CC3CC3)c2)ncn1)c1ccccc1OC1COC1` (centres unmarked) [Compound 217] displayed an inhibitory constant (Ki) below 30 nM.
The value for `COc1cc(C(=O)NCC(F)(F)F)ccc1C(C)CNc1cc(-c2ccc(C)nc2)ncn1` (centres unmarked) [Compound 218] was below 30 nM; that for `COCCn1ncc2cc(-c3cc(NCC(C)c4ccc(C(=O)NCC(F)(F)F)cc4OC)ncn3)cnc21` (centres unmarked) [Compound 220] was below 30 nM; that for `COc1cc(C(=O)NOCc2ccccc2)ccc1C(C)CNc1cc(-c2ccc(C)nc2)ncn1` (centres unmarked) [Compound 222] was below 30 nM.
`COc1ccccc1[C@H](C)CNc1cc(-c2ccc(N(C)C3CCN(C)CC3)nc2)ncn1` [Compound 223]: the Ki was below 30 nM.
The value for `CNC(=O)c1ccc(C(C)CNc2cc(-c3cnc4c(cnn4C[C@@H](O)CO)c3)ncn2)c(OC)c1` (some centres unmarked) [Compound 225] was below 30 nM; that for `COCCn1ncc2cc(-c3cc(NCC(C)c4cscc4OC)ncn3)cnc21` (centres unmarked) [Compound 227] was below 30 nM; that for `COc1cscc1C(C)CNc1cc(-c2cnc3c(cnn3C3CCN(C)CC3)c2)ncn1` (centres unmarked) [Compound 228] was below 30 nM.
The value for `COc1ccsc1C(C)CNc1cc(-c2cnc3c(cnn3CC3CC3)c2)ncn1` (centres unmarked) [Compound 232] was below 30 nM; that for `COc1ccsc1C(C)CNc1cc(-c2cnc3c(cnn3CCO)c2)ncn1` (centres unmarked) [Compound 233] was below 30 nM.
The value for `Cc1ccc(-c2cc(NCC(C)c3cccc4cccnc34)ncn2)cn1` (centres unmarked) [Compound 235] was below 30 nM; that for `CC(CNc1cc(-c2ccc(N3CCN(C)CC3)nc2)ncn1)c1cccc2cccnc12` (centres unmarked) [Compound 236] was below 30 nM.
For the compound `CC(CNc1cc(-c2cnc3c(cnn3C3CCN(C)CC3)c2)ncn1)c1cccc2cccnc12` (centres unmarked) [Compound 237], the inhibition constant (Ki) was below 30 nM.
The value for `CCNC(=O)Cn1ncc2cc(-c3cc(NCC(C)c4ccc(C(=O)NC)cc4OC)ncn3)cnc21` (centres unmarked) [Compound 238] was below 30 nM; that for `CNC(=O)c1ccc(C(C)CNc2cc(-c3cnc4c(cnn4CCN4CCCC4=O)c3)ncn2)c(OC)c1` (centres unmarked) [Compound 239] was below 30 nM.
With `Cc1ccc(-c2cc(NCC(C)c3ccccc3OC3CCC3)ncn2)cn1` (centres unmarked) [Compound 240], the Ki is below 30 nM.
The value for `Cc1ccc(-c2cc(NCC(C)c3ccccc3OC3CCCC3)ncn2)cn1` (centres unmarked) [Compound 241] was below 30 nM; that for `COc1ccccc1[C@H](C)CNc1cc(-c2ccc(NC3CCN(C4CC4)CC3)nc2)ncn1` [Compound 242] was below 30 nM.
The value for `CNC(=O)c1ccc([C@H](C)CNc2cc(-c3ccc4c(cnn4C4COC4)c3)ncn2)c(OC)c1` [Compound 243] was below 30 nM.
The value for `COc1ccc(Br)cc1C(C)CNc1cc(-c2ccc(C)nc2)ncn1` (centres unmarked) [Compound 245] was below 30 nM; that for `CNC(=O)c1ccc(C(C)CNc2cc(-c3ccc4c(cnn4CCO)c3)ncn2)c(OC)c1` (centres unmarked) [Compound 246] was below 30 nM.
`Cc1ccc(-c2cc(NCC(C)c3cccnc3OC3CCC3)ncn2)cn1` (centres unmarked) [Compound 247] registered an inhibition constant Ki below 30 nM.
The value for `CNC(=O)c1ccc(C(C)CNc2cc(-c3cnc4c(cnn4C4CN(C(C)=O)C4)c3)ncn2)c(OC)c1` (centres unmarked) [Compound 248] was below 30 nM; that for `COc1ccccc1[C@H](C)CNc1cc(-c2cnc3c(cnn3C3CN(C(C)=O)C3)c2)ncn1` [Compound 249] was below 30 nM; that for `COC(=O)c1ccc(OC)c(C(C)CNc2cc(-c3ccc(C)nc3)ncn2)c1` (centres unmarked) [Compound 250] was below 30 nM.
The value for `CNC(=O)c1ccc([C@H](C)CNc2cc(-c3cnc4c(ccn4C4COC4)c3)ncn2)c(OC)c1` [Compound 252] was below 30 nM.
The value for `CNC(=O)c1ccc([C@H](C)CNc2cc(-c3cnc4c(ccn4CC4CC4)c3)ncn2)c(OC)c1` [Compound 253] was below 30 nM; that for `COc1ccccc1[C@H](C)CNc1cc(-c2ccc(NC3CCN(C)CC3)nc2)ncn1` [Compound 254] was below 30 nM; that for `COc1ccccc1[C@H](C)CNc1cc(-c2ccc(N(C)C)nc2)ncn1` [Compound 255] was below 30 nM.
In turn, `CNC(=O)c1ccc(C(C)CNc2cc(-c3ccc4ncccc4c3)ncn2)c(OC)c1` (centres unmarked) [Compound 256] returned a Ki below 30 nM.
As to `COc1sccc1C(C)CNc1cc(-c2ccc(C)nc2)ncn1` (centres unmarked) [Compound 257], the Ki is below 30 nM.
The value for `COCCn1ncc2cc(-c3cc(NCC(C)c4ccsc4OC)ncn3)cnc21` (centres unmarked) [Compound 258] was below 30 nM; that for `COc1sccc1C(C)CNc1cc(-c2cnc3c(cnn3CCO)c2)ncn1` (centres unmarked) [Compound 259] was below 30 nM.
The value for `COCCn1ncc2cc(-c3cc(NCC(C)c4sccc4OC)ncn3)cnc21` (centres unmarked) [Compound 260] was below 30 nM.
The value for `COc1cscc1C(C)CNc1cc(-c2cnc3c(cnn3CCO)c2)ncn1` (centres unmarked) [Compound 261] was below 30 nM; that for `COc1ccsc1C(C)CNc1cc(-c2cnc3c(cnn3C3CCN(C)CC3)c2)ncn1` (centres unmarked) [Compound 262] was below 30 nM.
With `CNC(=O)c1ccc([C@H](C)CNc2cc(-c3ccc4c(c3)ncn4C)ncn2)c(OC)c1` [Compound 263], the Ki was below 30 nM.
The value for `COc1sccc1C(C)CNc1cc(-c2cnc3c(cnn3C3CCN(C)CC3)c2)ncn1` (centres unmarked) [Compound 264] was below 30 nM; that for `COc1sccc1C(C)CNc1cc(-c2ccc(N3CCN(C)CC3)nc2)ncn1` (centres unmarked) [Compound 265] was below 30 nM; that for `COc1sccc1C(C)CNc1cc(-c2cnc3c(cnn3CC3CC3)c2)ncn1` (centres unmarked) [Compound 266] was below 30 nM.
The value for `CNC(=O)c1ccc([C@H](C)CNc2cc(-c3ccc4c(ccn4C)c3)ncn2)c(OC)c1` [Compound 268] was below 30 nM.
Compound `CNC(=O)c1ccc([C@H](C)CNc2cc(-c3cnc4c(ccn4CCO)c3)ncn2)c(OC)c1` [Compound 269] returned a Ki below 30 nM.
`Cc1ccc(-c2cc(NCC(C)c3ccc(F)cc3OC3CC3)ncn2)cn1` (centres unmarked) [Compound 270]: the Ki is below 30 nM.
The value for `CC(CNc1cc(-c2ccc(N3CCN(C)CC3)nc2)ncn1)c1ccc(F)cc1OC1CC1` (centres unmarked) [Compound 271] was below 30 nM.
Regarding `CNC(=O)c1ccc(C(C)CNc2cc(-c3ccc4c(c3)c(C)nn4CCO)ncn2)c(OC)c1` (centres unmarked) [Compound 272], the inhibition constant Ki is below 30 nM.
As for `CNC(=O)c1ccc(C(C)CNc2cc(-c3cnc4c(cnn4CC(=O)OC)c3)ncn2)c(OC)c1` (centres unmarked) [Compound 273], the inhibition constant Ki is below 30 nM.
The value for `CNC(=O)c1ccc(C(C)CNc2cc(-c3cnc4c(cnn4CC(C)(C)O)c3)ncn2)c(OC)c1` (centres unmarked) [Compound 274] was below 30 nM.
The value for `CC(CNc1cc(-c2cnc3c(cnn3CCO)c2)ncn1)c1ccc(F)cc1OC1CC1` (centres unmarked) [Compound 275] was below 30 nM; that for `CCOC(=O)C(C)(C)n1ncc2cc(-c3cc(NCC(C)c4ccc(C(=O)NC)cc4OC)ncn3)cnc21` (centres unmarked) [Compound 276] was below 30 nM; that for `CNC(=O)c1ccc(C(C)CNc2cc(-c3ccc4c(cnn4CCO)c3C)ncn2)c(OC)c1` (centres unmarked) [Compound 277] was below 30 nM.
